{"source": "patent US3962256A", "about": "“2-Aminomethyl benzimidazole derivatives” (Delalande S.A., priority 1973, dated 1976)", "key": {"[1]": {"test_system": "painful stretchings caused by the intraperitoneal injection of acetic acid", "assay": "Analgesic: reduction of painful stretchings caused by intraperitoneal acetic acid, oral, mouse", "assay_type": "in vivo", "conditions": "100 mg/Kg/p.o.", "protocol": "The compounds of formula (I), administered by oral means to the mouse, are capable of reducing the number of painful stretchings caused by the intraperitoneal injection of acetic acid.\nBy way of example, the following Table III lists the results obtained by administration of 100 mg/Kg/p.o. of different compounds of formula (I)."}, "[2]": {"test_system": "bronchoconstriction provoked in the guinea-pig by acetylcholine", "assay": "Antibronchoconstrictive and anticholinergic: bronchoconstriction by intravenous acetylcholine, Konzett method", "assay_type": "in vivo", "conditions": "100 mg/kg/i.d.", "excerpt": "Injected by intraveinous or intraduodenal means, the compounds of formula (I) are capable of opposing the bronchoconstriction provoked in the guinea-pig by the itraveinous injection of acetylcholine by the Konzett method.\nBy way of example, the following Table VII lists the results obtained by the administration of different compounds of formula (I)"}, "[3]": {"test_system": "isolated duodenum of the rat", "assay": "Spasmolytic: opposing barium chloride contraction of isolated duodenum", "conditions": "papaverine as standard", "protocol": "The compounds of formula (I), introduced in the conserving medium are capable of opposing the contractural action of barium chloride on the isolated duodenum of the rat. This activity is evaluated by taking papaverine as standard."}, "[4]": {"test_system": "gastric ulcers, provoked in a rat by tying of the pylorus (Shay ulcers)", "assay": "Antiulcerous: reduction of Shay ulcers (tying of the pylorus)", "assay_type": "in vivo", "conditions": "50 mg/Kg/i.d.", "protocol": "The compounds of formula (I) administered by intraduodenal means reduce the extent of gastric ulcers, provoked in a rat by tying of the pylorus (Shay ulcers).\nBy way of example, there is listed in the following Table IX, the results obtained by the administrations of 50 mg/Kg/i.d. of different compounds of formula (I)."}, "[5]": {"assay": "Lethal doses / percentage mortality, oral", "assay_type": "in vivo", "conditions": "2 000 mg/Kg/p.o., 2000 mg/kg", "excerpt": "As a result of a comparison between the pharmacologically active doses mentioned above and the lethal doses listed in the following Table XII, the difference between said doses is sufficiently great to permit the utilisation of the compounds of formula (I) in therapeutics."}, "[6]": {"test_system": "explorations in the escape enclosure", "assay": "Sedative: reduction of number of explorations in the escape enclosure", "assay_type": "in vivo", "conditions": "100 mg/Kg/p.o., mouse", "protocol": "The compounds of formula (I), administered by oral means to the mouse, reduce the number of explorations in the escape enclosure.\nBy way of example, the following Table VIII lists the results obtained by the administration of 100 mg/Kg/p.o. of different compounds of formula (I)."}, "[7]": {"test_system": "oedema caused by the sub-plantar injection of carraghenin", "assay": "Antiinflammatory: reduction of sub-plantar oedema caused by carraghenin, rat", "assay_type": "in vivo", "conditions": "100 mg/Kg/p.o.", "protocol": "These properties are shown by a diminution of the local oedema caused by the sub-plantar injection of a phlogogenic agent, such as carraghenin, in the rat following the oral administration of compounds of formula (I).\nThe following Table VI lists, by way of example, the percentage reduction of the oedems caused by the sub-plantar injection of carraghenin, resulting from the administration of 100 mg/Kg/p.o. of different compounds of formula (I)."}, "[8]": {"test_system": "ventricular fibrillations provoked by the inhalation of chloroform", "assay": "Antiarythmic: protection against ventricular fibrillations provoked by inhalation of chloroform", "assay_type": "in vivo", "conditions": "i.p., mouse", "excerpt": "Administered by intraperitoneal means, the compounds of formula (I) are capable of protecting the mouse against the ventricular fibrillations provoked by the inhalation of chloroform."}, "[9]": {"test_system": "volume of urine emitted", "assay": "Diuretic: augmentation of urinary elimination", "assay_type": "in vivo", "conditions": "25 mg/Kg/p.o., mouse, 6 hours", "protocol": "The compounds of formula (I), administered by oral means to the mouse, simultaneously with a volume of 1 ml. of an isotonic solution of sodium chloride per 25 g of the corporeal weight of the mouse, are capable of provoking an augmentation of the volume of urine emitted by reference to control animals, the volume being measured for 6 hours following administration.\nBy way of example, the following Table XI lists the results obtained by the administration of 25 mg/Kg/p.o. of different compounds of formula (I)."}, "[10]": {"test_system": "isolated heart of a guinea-pig", "assay": "Vasodilatatory: coronary flow of isolated heart", "conditions": "1 μg/ml in perfusion liquid", "protocol": "The compounds of formula (I) are capable of augmenting the flow of the coronary vessels of the isolated heart of a guinea-pig when said compounds are added in the perfusion liquid of said organ.\nBy way of example, there can be found in the following Table X, the percentage augmentation of the flow of the isolated heart of a guinea-pig by adding different compounds of formula (I) to the perfusion liquid, in a concentration of 1 μg/ml."}, "[11]": {"test_system": "rat suffering from high blood pressure", "assay": "Antihypertensive: return of systolic arterial pressure to normal in rats with high blood pressure", "assay_type": "in vivo", "excerpt": "The compounds of formula (I), administered by oral means to a rat suffering from high blood pressure, are capable of lowering the systolic arteriel pressure.\nBy way of example, there is provided in the following Table IV the results obtained by administration of different compounds of formula (I)."}, "[12]": {"test_system": "gastric secretion measured after Shay ligature", "assay": "Gastric antisecretory: reduction of gastric secretion after Shay ligature, rat", "assay_type": "in vivo", "conditions": "50 mg/Kg/i.d.", "protocol": "Administered by intraduodenal means to a rat, the compounds of formula (I) are capable of reducing the gastric secretion measured after Shay ligature.\nBy way of example, the following Table V gives the results obtained by administration of 50 mg/Kg/i.d. of different compounds of formula (I)."}}}
{"smiles": "COc1ccc(C(=O)CCn2c(CN3CCCC3)nc3ccccc32)cc1OC", "note": "[72 617]", "values": [{"measurement": "Percentage reduction of number of painful stretchings", "setting": "[1]", "result": 70, "unit": "%"}]}
{"smiles": "O=C(CCn1c(CN2CCCC2)nc2ccccc21)c1ccc(F)cc1", "note": "[72 708]", "values": [{"measurement": "Percentage inhibition of bronchoconstriction", "setting": "[2]", "result": 90, "unit": "%"}, {"measurement": "spasmolytic activity relative to papaverine", "setting": "[3]", "result": "equivalent spasmolytic actvity to that of papaverine"}, {"measurement": "Percentage reduction of number of painful stretchings", "setting": "[1]", "result": 60, "unit": "%"}, {"measurement": "Percentage reduction of Shay ulcers", "setting": "[4]", "result": 30, "unit": "%"}]}
{"smiles": "Cc1ccc(C(=O)CCn2c(CN3CCCCC3)nc3ccccc32)c(C)c1", "note": "[72 540]", "values": [{"measurement": "Percentage inhibition of bronchoconstriction", "setting": "[2]", "result": 50, "unit": "%"}, {"measurement": "Percentage mortality", "setting": "[5]", "result": 0, "unit": "%"}, {"measurement": "Percentage reduction of number of explorations in the escape enclosure", "setting": "[6]", "result": 30, "unit": "%"}]}
{"smiles": "O=C(CCn1c(CN2CCCCCC2)nc2ccccc21)c1ccc(F)cc1", "note": "[72 488]", "values": [{"measurement": "Percentage reduction of sub-plantar oedema", "setting": "[7]", "result": 50, "unit": "%"}, {"measurement": "Percentage mortality", "setting": "[5]", "result": 0, "unit": "%"}, {"measurement": "DE 50", "setting": "[8]", "result": 200, "unit": "mg/Kg/i.p."}, {"measurement": "Percentage reduction of Shay ulcers", "setting": "[4]", "result": 25, "unit": "%"}]}
{"smiles": "CCN(CC)Cc1nc2ccccc2n1CCC(=O)c1ccc(OC)c(OC)c1.O=C(O)/C=C\\C(=O)O", "note": "[72 692]", "values": [{"measurement": "Percentage augmentation of urinary elimination", "setting": "[9]", "result": 70, "unit": "%"}, {"measurement": "Percentage reduction of number of explorations in the escape enclosure", "setting": "[6]", "result": 30, "unit": "%"}, {"measurement": "Percentage augmentations of flow of isolated heart of a guinea-pig", "setting": "[10]", "result": 60, "unit": "%"}]}
{"smiles": "CCN(CC)Cc1nc2ccccc2n1CCC(=O)c1ccc(F)cc1.O=C(O)/C=C\\C(=O)O", "note": "[72 568]", "values": [{"measurement": "Percentage of rats with high blood pressure whose systolic arteriel pressure is returned to normal", "setting": "[11]; 200 mg/Kg/p.o.", "result": 50, "unit": "%"}, {"measurement": "DE 50", "setting": "[8]", "result": 200, "unit": "mg/Kg/i.p."}]}
{"smiles": "CCCCOc1ccc(C(=O)CCn2c(CN3CCOCC3)nc3ccccc32)cc1", "note": "[72 523]", "values": [{"measurement": "Percentage mortality", "setting": "[5]", "result": 0, "unit": "%"}, {"measurement": "Percentage reductions in volume of gastric secretion", "setting": "[12]", "result": 25, "unit": "%"}, {"measurement": "Percentage reduction of number of painful stretchings", "setting": "[1]", "result": 45, "unit": "%"}]}
{"smiles": "O=C(CCn1c(CN2CCCCC2)nc2ccccc21)c1ccccc1", "note": "[72 491]", "values": [{"measurement": "Percentage of rats with high blood pressure whose systolic arteriel pressure is returned to normal", "setting": "[11]; 200 mg/Kg/p.o.", "result": 50, "unit": "%"}, {"measurement": "Percentage mortality", "setting": "[5]", "result": 0, "unit": "%"}, {"measurement": "Percentage reduction of number of painful stretchings", "setting": "[1]", "result": 65, "unit": "%"}]}
{"smiles": "CCCCOc1ccc(C(=O)CCn2c(CN3CCCCC3)nc3ccccc32)cc1", "note": "[72 464]", "values": [{"measurement": "Percentage mortality", "setting": "[5]", "result": 0, "unit": "%"}, {"measurement": "Percentage reduction of number of explorations in the escape enclosure", "setting": "[6]", "result": 30, "unit": "%"}]}
{"smiles": "COc1cc(C(=O)CCn2c(CN(C)C)nc3ccccc32)cc(OC)c1OC", "note": "[72 534]", "values": [{"measurement": "Percentage inhibition of bronchoconstriction", "setting": "[2]", "result": 50, "unit": "%"}, {"measurement": "Percentage mortality", "setting": "[5]", "result": 0, "unit": "%"}]}
{"smiles": "COc1ccc(C(=O)CCn2c(CN3CCOCC3)nc3ccccc32)cc1OC", "note": "[72 391]", "values": [{"measurement": "Percentage inhibition of bronchoconstriction", "setting": "[2]", "result": 100, "unit": "%"}, {"measurement": "Percentage mortality", "setting": "[5]", "result": 0, "unit": "%"}, {"measurement": "Percentage reduction of number of explorations in the escape enclosure", "setting": "[6]", "result": 50, "unit": "%"}, {"measurement": "Percentage reduction of number of painful stretchings", "setting": "[1]", "result": 60, "unit": "%"}]}
{"smiles": "O=C(CCn1c(CN2CCOCC2)nc2ccccc21)c1ccccc1", "note": "[72 494]", "values": [{"measurement": "Percentage reduction of sub-plantar oedema", "setting": "[7]", "result": 40, "unit": "%"}, {"measurement": "mortality", "setting": "[5]; in vivo, po", "result": 0, "unit": "%"}, {"measurement": "Percentage reductions in volume of gastric secretion", "setting": "[12]", "result": 25, "unit": "%"}]}
{"smiles": "COc1cc(C(=O)CCn2c(CN3CCCC3)nc3ccccc32)cc(OC)c1OC", "note": "[72 414]", "values": [{"measurement": "Percentage inhibition of bronchoconstriction", "setting": "[2]", "result": 50, "unit": "%"}, {"measurement": "Percentage of rats with high blood pressure whose systolic arteriel pressure is returned to normal", "setting": "[11]; 150 mg/Kg/p.o.", "result": 75, "unit": "%"}]}
{"smiles": "CN(C)Cc1nc2ccccc2n1CCC(=O)c1ccc(Cl)cc1", "note": "[72 479]", "values": [{"measurement": "Percentage of rats with high blood pressure whose systolic arteriel pressure is returned to normal", "setting": "[11]; 200 mg/Kg/p.o.", "result": 50, "unit": "%"}, {"measurement": "Percentage mortality", "setting": "[5]", "result": 0, "unit": "%"}, {"measurement": "DE 50", "setting": "[8]", "result": 200, "unit": "mg/Kg/i.p."}, {"measurement": "Percentage augmentations of flow of isolated heart of a guinea-pig", "setting": "[10]", "result": 80, "unit": "%"}, {"measurement": "Percentage reduction of Shay ulcers", "setting": "[4]", "result": 30, "unit": "%"}]}
{"smiles": "O=C(CCn1c(CN2CCOCC2)nc2ccccc21)c1ccc(Cl)cc1", "note": "[72 359]", "values": [{"measurement": "Percentage mortality", "setting": "[5]", "result": 0, "unit": "%"}, {"measurement": "Percentage reduction of Shay ulcers", "setting": "[4]", "result": 35, "unit": "%"}]}
